Experimental data published in US7592359B2, “Substituted azabicyclo hexane derivatives as muscarinic receptor antagonists” (Ranbaxy Laboratories Limited, priority 2003, dated 2009).

What was measured:
M3 muscarinic receptor = biological target: T1, M3 muscarinic receptor (Rattus norvegicus, UniProt P08483); experiment: Radioligand binding assay, [3H]-N-methylscopolamine, rat submandibular gland membranes; settings: [3H]-NMS binding, read-out: Receptor Binding Assay pKi M3 (converted)
T1 construct: Submandibular glands and heart were isolated and placed in ice cold homogenising buffer; from tissue; host or cells: rat submandibular gland membrane homogenate
T1 sequence (P08483 whole entry): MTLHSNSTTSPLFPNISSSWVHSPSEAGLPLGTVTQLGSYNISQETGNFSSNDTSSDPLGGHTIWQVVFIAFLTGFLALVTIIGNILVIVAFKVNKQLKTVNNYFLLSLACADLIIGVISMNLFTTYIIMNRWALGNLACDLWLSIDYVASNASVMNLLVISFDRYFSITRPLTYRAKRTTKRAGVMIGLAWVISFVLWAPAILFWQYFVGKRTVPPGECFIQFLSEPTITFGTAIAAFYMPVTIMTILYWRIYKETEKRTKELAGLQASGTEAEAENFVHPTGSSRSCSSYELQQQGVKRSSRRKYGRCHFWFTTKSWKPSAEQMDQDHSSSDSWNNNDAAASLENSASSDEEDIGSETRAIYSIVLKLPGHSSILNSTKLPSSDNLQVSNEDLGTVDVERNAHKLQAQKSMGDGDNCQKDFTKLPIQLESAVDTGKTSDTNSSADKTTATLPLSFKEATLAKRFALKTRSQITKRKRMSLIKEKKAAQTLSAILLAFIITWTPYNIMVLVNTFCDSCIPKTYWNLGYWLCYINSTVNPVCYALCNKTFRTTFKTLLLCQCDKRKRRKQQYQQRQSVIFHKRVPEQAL
Method: (§1) Membrane preparation: Submandibular glands and heart were isolated and placed in ice cold homogenising buffer (HEPES 20 mM, 10 mM EDTA, pH 7.4) immediately after sacrifice. The tissues were homogenised in 10 volumes of homogenising buffer and the homogenate was filtered through two layers of wet gauze and filtrate was centrifuged at 500 g for 10 min. The supernatant was subsequently centrifuged at 40,000 g for 20 min. The pellet thus obtained was resuspended in same volume of assay buffer (HEPES 20 mM, EDTA 5 mM, pH 7.4) and were stored at −70° C. until the time of assay.
(§2) Ligand binding assay The compounds were dissolved and diluted in DMSO. The membrane homogenates (150-250 μg protein) were incubated in 250 μl of assay buffer (HEPES 20 mM, pH 7.4) at 24-25° C. for 3 hours. Non-specific binding was determined in the presence of 1 μM atropine. The incubation was terminated by vacuum filtration over GF/B fiber filters (Wallac). The filters were then washed with ice cold 50 mM Tris HCl buffer (pH 7.4). The filter mats were dried and bound radioactivity retained on filters was counted. The IC50 & Kd were estimated by using the non-linear curve fitting program using G Pad Prism software.

M2 muscarinic receptor = biological target: T2, M2 muscarinic receptor (Rattus norvegicus, UniProt P10980); experiment: Radioligand binding assay, [3H]-N-methylscopolamine, rat heart membranes; settings: [3H]-NMS binding, read-out: Receptor Binding Assay pKi M2 (converted)
T2 construct: Submandibular glands and heart were isolated and placed in ice cold homogenising buffer; from tissue; host or cells: rat heart membrane homogenate
T2 sequence (P10980 1-466): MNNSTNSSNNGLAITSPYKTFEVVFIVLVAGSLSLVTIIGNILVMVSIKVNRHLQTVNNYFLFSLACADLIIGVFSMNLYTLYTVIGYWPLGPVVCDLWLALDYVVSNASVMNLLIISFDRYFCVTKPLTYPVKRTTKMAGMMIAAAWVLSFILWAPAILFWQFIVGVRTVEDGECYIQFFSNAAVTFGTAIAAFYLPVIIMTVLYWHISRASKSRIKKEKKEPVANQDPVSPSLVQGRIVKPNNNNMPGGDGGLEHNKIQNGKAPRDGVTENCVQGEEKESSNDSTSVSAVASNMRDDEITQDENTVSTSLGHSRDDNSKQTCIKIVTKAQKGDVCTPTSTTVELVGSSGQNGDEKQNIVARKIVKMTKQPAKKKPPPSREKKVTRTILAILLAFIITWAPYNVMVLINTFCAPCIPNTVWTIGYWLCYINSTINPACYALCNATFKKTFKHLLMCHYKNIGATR
Method: as §1, §2

## O=C(NC12CC1CN(Cc1ccccc1)C2)C(CO)c1ccccc1 (stereo not drawn) [Compound No. 4, (1α,5α)-N-[3-benzyl-3-azabicyclo[3.1.0]hex-1-yl]-2-hydroxymethyl-2-phenylacetamide]
M3 muscarinic receptor
  Ki: 7.94 µM
M2 muscarinic receptor
  Ki: 15.8 µM
